Data published in PMC5601486, “Identification of 4-phenylquinolin-2(1H)-one as a specific allosteric inhibitor of Akt” (Scientific Reports, 2017).
“And” between values parts separate entries of the source, which are not always exact repeats. Equal values may be shown once.

What was measured:
[1] = tested on: SNARK; assay: KINOMEscan; details: 50000 nM
Description: KINOMEscan™ selectivity screen
(§1) The assay was perfor med at DiscoveRx Corporation according the methods published previously5. Briefly, Kinase-tagged T7 phage strains were grown in parallel in an E. coli host derived from the BL21 strain. E. coli were grown to log-phase and infected with T7 phage from a frozen stock and incubated with shaking at 32°C until lysis (90-150 minutes). The kinases were produced in HEK-293 cells and subsequently tagged with DNA for qPCR detection. Streptavidin-coated magnetic beads were treated with biotinylated small molecule ligands to generate affinity resins for kinase
(§2) inhibitor or DMSO control was performed in polypropylene 384-well plates for 1 hr at room temperature. After wash with PBS buffer containing 0.05% Tween 20, the beads were incubated in elution buffer (PBS containing 0.05 % Tween 20 and 0.5 μM non-biotinylated affinity ligand) for 30 minutes at room temperature. The kinase concentration in the eluates was measured by qPCR.

[2] = tested on: CTK; assay: KINOMEscan; details: 50000 nM
Description: KINOMEscan™ selectivity screen
(§3) Briefly, Kinase-tagged T7 phage strains were grown in parallel in an E. coli host derived from the BL21 strain. E. coli were grown to log-phase and infected with T7 phage from a frozen stock and incubated with shaking at 32°C until lysis (90-150 minutes). The kinases were produced in HEK-293 cells and subsequently tagged with DNA for qPCR detection. Streptavidin-coated magnetic beads were treated with biotinylated small molecule ligands to generate affinity resins for kinase
as §2

[3] = tested on: T1, CDC2L5; assay: KINOMEscan; type: binding, human; details: 50000 nM
T1 construct: purchased DiscoveRx KINOMEscan

[4] = tested on: ASK2; assay: KINOMEscan; details: 50000 nM
Description: KINOMEscan™ selectivity screen
as §3, §2

[5] = tested on: HIPK3; assay: KINOMEscan; details: 50000 nM
Description: KINOMEscan™ selectivity screen
as §3, §2

[6] = tested on: PIK3CA(I800L); assay: KINOMEscan; details: 50000 nM
Description: KINOMEscan™ selectivity screen
as §1, §2

[7] = tested on: PHKG2; assay: KINOMEscan; details: 50000 nM
Description: KINOMEscan™ selectivity screen
as §3, §2

[8] = tested on: ICK; assay: KINOMEscan; details: 50000 nM
Description: KINOMEscan™ selectivity screen
as §3, §2

[9] = tested on: MRCKA; assay: KINOMEscan; details: 50000 nM
Description: KINOMEscan™ selectivity screen
as §1, §2

[10] = tested on: DMPK2; assay: KINOMEscan; details: 50000 nM
Description: KINOMEscan™ selectivity screen
as §1, §2

[11] = tested on: CDK7; assay: KINOMEscan; details: 50000 nM
Description: KINOMEscan™ selectivity screen
as §1, §2

[12] = tested on: FLT3(ITD,D835V); assay: KINOMEscan; details: 50000 nM
Description: KINOMEscan™ selectivity screen
as §1, §2

[13] = tested on: MAP4K4; assay: KINOMEscan; details: 50000 nM
Description: KINOMEscan™ selectivity screen
as §1, §2

[14] = tested on: TYRO3; assay: KINOMEscan; details: 50000 nM
Description: KINOMEscan™ selectivity screen
as §1, §2

[15] = tested on: MKNK1; assay: KINOMEscan; details: 50000 nM
Description: KINOMEscan™ selectivity screen
as §3, §2

[16] = tested on: CDC2L2; assay: KINOMEscan; details: 50000 nM
Description: KINOMEscan™ selectivity screen
as §3, §2

[17] = tested on: RIPK5; assay: KINOMEscan; details: 50000 nM
Description: KINOMEscan™ selectivity screen
as §1, §2

[18] = tested on: YES; assay: KINOMEscan; details: 50000 nM
Description: KINOMEscan™ selectivity screen
as §1, §2

[19] = tested on: TAOK2; assay: KINOMEscan; details: 50000 nM
Description: KINOMEscan™ selectivity screen
Briefly, Kinase-tagged T7 phage strains were grown in parallel in an E. coli host derived from the BL21 strain. E. coli were grown to log-phase and infected with T7 phage from a frozen stock and incubated with shaking at 32°C until lysis (90-150 minutes). The kinases were produced in HEK-293 cells and subsequently tagged with DNA for qPCR detection.
After wash with PBS buffer containing 0.05% Tween 20, the beads were incubated in elution buffer (PBS containing 0.05 % Tween 20 and 0.5 μM non-biotinylated affinity ligand) for 30 minutes at room temperature. The kinase concentration in the eluates was measured by qPCR.

[20] = tested on: PRKR; assay: KINOMEscan; details: 50000 nM
Description: KINOMEscan™ selectivity screen
as §1, §2

[21] = tested on: CAMK2D; assay: KINOMEscan; details: 50000 nM
Description: KINOMEscan™ selectivity screen
as §3, §2

[22] = tested on: CDKL5; assay: KINOMEscan; details: 50000 nM
Description: KINOMEscan™ selectivity screen
as §3, §2

[23] = tested on: KIT; assay: KINOMEscan; details: 50000 nM
Description: KINOMEscan™ selectivity screen
as §3, §2

[24] = tested on: EPHB2; assay: KINOMEscan; details: 50000 nM
Description: KINOMEscan™ selectivity screen
as §1, §2

[25] = tested on: PIK3CA(M1043I); assay: KINOMEscan; details: 50000 nM
Description: KINOMEscan™ selectivity screen
as §1, §2

[26] = tested on: PRKX; assay: KINOMEscan; details: 50000 nM
Description: KINOMEscan™ selectivity screen
as §1, §2

[27] = tested on: CDK4; assay: KINOMEscan; details: 50000 nM
Description: KINOMEscan™ selectivity screen
as §3, §2

[28] = tested on: BTK; assay: KINOMEscan; details: 50000 nM
Description: KINOMEscan™ selectivity screen
as §1, §2

[29] = tested on: RSK3(Kin.Dom.1-N-terminal); assay: KINOMEscan; details: 50000 nM
Description: KINOMEscan™ selectivity screen
as §3, §2

[30] = tested on: LRRK2; assay: KINOMEscan; details: 50000 nM
Description: KINOMEscan™ selectivity screen
as §1, §2

[31] = tested on: NEK4; assay: KINOMEscan; details: 50000 nM
Description: KINOMEscan™ selectivity screen
as §1, §2

[32] = tested on: PKN2; assay: KINOMEscan; details: 50000 nM
Description: KINOMEscan™ selectivity screen
as §1, §2

[33] = tested on: EPHB3; assay: KINOMEscan; details: 50000 nM
Description: KINOMEscan™ selectivity screen
The assay was perfor med at DiscoveRx Corporation according the methods published previously5. […] The kinases were produced in HEK-293 cells and subsequently tagged with DNA for qPCR detection. Streptavidin-coated magnetic beads were treated with biotinylated small molecule ligands to generate affinity resins for kinase
as §2

[34] = tested on: ROCK1; assay: KINOMEscan; details: 50000 nM
Description: KINOMEscan™ selectivity screen
as §3, §2

[35] = tested on: CAMK1D; assay: KINOMEscan; details: 50000 nM
Description: as §3, §2

[36] = tested on: SGK2; assay: KINOMEscan; details: 50000 nM
Description: KINOMEscan™ selectivity screen
as §3, §2

[37] = tested on: RSK2(Kin.Dom.1-N-terminal); assay: KINOMEscan; details: 50000 nM
Description: KINOMEscan™ selectivity screen
as §1, §2

[38] = tested on: WNK3; assay: KINOMEscan; details: 50000 nM
Description: KINOMEscan™ selectivity screen
as §1, §2

[39] = tested on: CHEK2; assay: KINOMEscan; details: 50000 nM
Description: KINOMEscan™ selectivity screen
as §3, §2

[40] = tested on: PAK2; assay: KINOMEscan; details: 50000 nM
Description: KINOMEscan™ selectivity screen
as §1, §2

[41] = tested on: JAK2(JH1domain-catalytic); assay: KINOMEscan; details: 50000 nM
Description: KINOMEscan™ selectivity screen
as §3, §2

[42] = tested on: TGFBR2; assay: KINOMEscan; details: 50000 nM
Description: KINOMEscan™ selectivity screen
as §1, §2

[43] = tested on: MLK3; assay: KINOMEscan; details: 50000 nM
Description: KINOMEscan™ selectivity screen
as §1, §2

[44] = molecular target: T2, Akt (Mus musculus, UniProt P31750); assay: Akt activity assay (immunoprecipitated Akt, K-Lisa); type: cell-based
T2 construct: subjected to immunoprecipitation using protein G-plus and anti-AKT PH domain (Millipore); endogenous in cells; host or cells: Neuro 2A (mouse neuroblastoma), IGF-stimulated
Description: After overnight starvation by incubating with serum-free DMEM, Neuro 2A cells were treated with compound G7 at various concentrations for 30 min at room temperature followed by stimulation with IGF (final concentration of 100 ng/mL) for 30 min. Cells were lysed with lysis buffer containing 1% Triton X-100 and protease/phosphatase inhibitors (Cell Signaling Technology) and subjected to immunoprecipitation using protein G-plus and anti-AKT PH domain (Millipore). The activity of the immunopurified Akt was evaluated using a K-Lisa Akt activity kit (Millipore) in accordance with manufacturer’s instructions. The activity was normalized to Akt level in the immunoprecipitates determined by quantitative western blot analysis.

[45] = tested on: FLT3(D835Y); assay: KINOMEscan; details: 50000 nM
Description: KINOMEscan™ selectivity screen
as §1, §2

[46] = tested on: STK33; assay: KINOMEscan; details: 50000 nM
Description: KINOMEscan™ selectivity screen
as §1, §2

[47] = tested on: PDGFRB; assay: KINOMEscan; details: 50000 nM
Description: KINOMEscan™ selectivity screen
as §3, §2

T2 sequence (P31750 whole entry, the tested form may be a part): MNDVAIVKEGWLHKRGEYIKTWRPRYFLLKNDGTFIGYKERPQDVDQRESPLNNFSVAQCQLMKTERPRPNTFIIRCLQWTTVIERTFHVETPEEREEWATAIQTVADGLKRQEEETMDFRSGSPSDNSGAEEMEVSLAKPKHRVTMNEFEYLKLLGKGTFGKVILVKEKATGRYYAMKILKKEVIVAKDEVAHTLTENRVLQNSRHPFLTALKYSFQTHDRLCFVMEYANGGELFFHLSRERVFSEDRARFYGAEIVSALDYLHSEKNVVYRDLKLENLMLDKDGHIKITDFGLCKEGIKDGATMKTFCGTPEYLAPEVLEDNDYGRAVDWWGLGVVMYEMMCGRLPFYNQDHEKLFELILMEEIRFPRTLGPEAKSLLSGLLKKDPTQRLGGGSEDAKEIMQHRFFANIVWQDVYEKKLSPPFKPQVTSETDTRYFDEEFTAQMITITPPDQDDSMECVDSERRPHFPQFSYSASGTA

Oc1cc(-c2ccccc2)c2ccccc2n1 [G7, 4-phenylquinolin-2(1H)-one]
Percent Control [1]: 45%
Percent Control [2]: 74%
Percent Control [3]: 87%
Percent Control [4]: 78%
Percent Control [5]: 65%
Percent Control [6]: 95%
Percent Control [7]: 91%
Percent Control [8]: 71%
Percent Control [9]: 100%
Percent Control [10]: 100%
Percent Control [11]: 84%
Percent Control [12]: 34%
Percent Control [13]: 100%
Percent Control [14]: 93%
Percent Control [15]: 69%
Percent Control [16]: 88%
Percent Control [17]: 73%
Percent Control [18]: 93%
Percent Control [19]: 93%
Percent Control [20]: 74%
Percent Control [21]: 79%
Percent Control [22]: 100%
Percent Control [23]: 26%
Percent Control [24]: 93%
Percent Control [25]: 100%
Percent Control [26]: 76%
Percent Control [27]: 100%
Percent Control [28]: 50%
Percent Control [29]: 69%
Percent Control [30]: 55%
Percent Control [31]: 95%
Percent Control [32]: 89%
Percent Control [33]: 96%
Percent Control [34]: 69%
Percent Control [35]: 87%
Percent Control [36]: 62%
Percent Control [37]: 17%
Percent Control [38]: 98%
Percent Control [39]: 100%
Percent Control [40]: 68%
Percent Control [41]: 61%
Percent Control [42]: 100%
Percent Control [43]: 88%
decrease of Akt activity ([44]; G7 at 50 µM): ~ 80%
IC50 ([44]; IGF-stimulated Neuro 2A cells, Akt immunoprecipitated, read-out: IC50 on Akt enzymatic activity): 6 µM and 6.2 µM
Percent Control [45]: 33%
Percent Control [46]: 100%
Percent Control [47]: 23%
